From US20240148821A1, “PHARMACEUTICAL USE OF CYCLIC PEPTIDE COMPOUND” (CHUGAI SEIYAKU KABUSHIKI KAISHA, priority 2021, published 2024)
Numbered stars: 1 amine (or outer) side, 2 acyl side, 3 side chain; on linkers, the order of the positions; unused ones are H or OH. Bridge positions count the residues as written; N and C are the ends. Square brackets hold non-standard residues; d marks the D form. Peptide text beside a SMILES is read from it. * marks the point of attachment. hPhe(3-Cl-4-CF3) = N[C@@H](CCc1ccc(C(F)(F)F)c(Cl)c1)C(=O)O; hPhe(3-F,4-CF3) = N[C@@H](CCc1ccc(C(F)(F)F)c(F)c1)C(=O)O; NEtPhe(4-CF3) = CCN[C@@H](Cc1ccc(C(F)(F)F)cc1)C(=O)O; hPhe(4-CF3) = N[C@@H](CCc1ccc(C(F)(F)F)cc1)C(=O)O; NEtPhe(4-Me) = CCN[C@@H](Cc1ccc(C)cc1)C(=O)O; NMePhe(4-Cl) = CN[C@@H](Cc1ccc(Cl)cc1)C(=O)O; NMedβ3hAla = C[C@H](CC(=O)[*:2])N(C)[*:1]; NMeAla(cPent) = CN[C@@H](CC1CCCC1)C(=O)O; Phe(3-Cl) = N[C@@H](Cc1cccc(Cl)c1)C(=O)O; NMeGly(cPent) = CN[C@H](C(=O)O)C1CCCC1; Pro(4,4-F2) = O=C(O)[C@@H]1CC(F)(F)CN1; NMeCha = CN[C@@H](CC1CCCCC1)C(=O)O; Hyp = O=C(O)[C@@H]1C[C@@H](O)CN1; NMeChg = CN[C@H](C(=O)O)C1CCCCC1; NMeF = CN[C@@H](Cc1ccccc1)C(=O)O; NMeI = CC[C@H](C)[C@H](NC)C(=O)O; NMeT = CN[C@H](C(=O)O)[C@@H](C)O; NMeD = CN[C@@H](CC(=O)O)C(=O)O; NMeL = CN[C@@H](CC(C)C)C(=O)O; NMeV = CN[C@H](C(=O)O)C(C)C; Azetidin(1-yl) = C1CN(*)C1; NMeS = CN[C@@H](CO)C(=O)O; NMeA = CN[C@@H](C)C(=O)O; Piperidide = C1CCN(*)CC1; Pyrrolidide = C1CCN(*)C1; Ac5c = NC1(C(=O)O)CCCC1; Aze = O=C(O)[C@@H]1CCN1; Ac4c = NC1(C(=O)O)CCC1; Isopentyl = CC(C)CC*; βAla = NCCC(=O)O; Sar = CNCC(=O)O

biological target: protein-protein interaction between Kras and SOS1 (biotin-tagged human Kras loaded with GDP, His-tagged human SOS1) (Homo sapiens (Human), UniProt P01116, G12D); assay: Protein-protein interaction inhibition between Kras and SOS1 (KrasG12D-SOS PPI) using AlphaScreen; assay type: biochemical; settings: AlphaScreen; biotin-tagged human Kras loaded with GDP, His-tagged human SOS1; read-out: KRAS G12D-SOS PPI IC50;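 further: kras produced in E. coli, Ni-coupled donor beads and streptavidin acceptor beads, excitation 680 nm with emission detected at 520–620 nm via singlet oxygen transfer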

First: CC[C@H](C)[C@@H]1NC(=O)[C@H](CC(C)C)N(C)C(=O)C[C@@H](C(=O)N2CCCC2)N(C)C(=O)[C@H](C2CCCC2)N(C)C(=O)C2(CCCC2)NC(=O)[C@@H]2CCCN2C(=O)[C@H](CCc2ccc(C(F)(F)F)c(F)c2)NC(=O)CN(C)C(=O)[C@H](C2CCCC2)N(C)C(=O)[C@@H]2CCN2C(=O)[C@H](C)N(C)C1=O [Compound 918] ([NMeL]I[NMeA][Aze][NMeGly(cPent)][Sar][hPhe(3-F,4-CF3)]P[Ac5c][NMeGly(cPent)][NMeD]-Pyrrolidide; lactam N-11)
Second: CC[C@H](C)[C@@H]1NC(=O)[C@H](CC(C)C)N(C)C(=O)C[C@@H](C(=O)N2CCCCC2)N(C)C(=O)[C@H](C(C)C)N(C)C(=O)C2(CCCC2)NC(=O)[C@@H]2CCCN2C(=O)[C@H](CCc2ccc(C(F)(F)F)c(Cl)c2)NC(=O)CN(C)C(=O)[C@H]([C@@H](C)OC)N(C)C(=O)[C@@H]2CCN2C(=O)[C@H](C)N(C)C1=O [Compound 929] ([NMeL]I[NMeA][Aze][NMeT](Me)[Sar][hPhe(3-Cl-4-CF3)]P[Ac5c][NMeV][NMeD]-Piperidide; lactam N-11)
The IC50 of the first is 4.6-fold lower: 0.89 nM for the first, 4.1 nM for the second.

Compared with `CC[C@H](C)[C@@H]1NC(=O)[C@H](CC2CCCC2)N(C)C(=O)C[C@@H](C(=O)N2CCC2)N(C)C(=O)[C@H](C2CCCC2)N(C)C(=O)C2(CCCC2)NC(=O)[C@@H]2CCCN2C(=O)[C@H](CCc2ccc(C(F)(F)F)c(Cl)c2)NC(=O)CN(C)C(=O)[C@H](CC2CCCCC2)N(C)C(=O)[C@@H]2CCN2C(=O)[C@H](C)NC1=O` [Compound 921] ([NMeAla(cPent)]IA[Aze][NMeCha][Sar][hPhe(3-Cl-4-CF3)]P[Ac5c][NMeGly(cPent)][NMeD]-{Azetidin(1-yl)}; lactam N-11), `CCO[C@@H]1C[C@H]2C(=O)NC3(CCC3)C(=O)N(C)[C@@H](C3CCCCC3)C(=O)N(C)[C@H](C)CC(=O)N(C)[C@@H](CC(C)C)C(=O)N[C@@H]([C@@H](C)CC)C(=O)N(C)[C@@H](C)C(=O)N3CC[C@H]3C(=O)N(CC)[C@@H](Cc3ccc(C)cc3)C(=O)N(C)CC(=O)N[C@@H](CCc3ccc(C(F)(F)F)c(Cl)c3)C(=O)N2C1` [Compound 928] (cyclo([Ac4c][NMeChg][NMedβ3hAla][NMeL]I[NMeA][Aze][NEtPhe(4-Me)][Sar][hPhe(3-Cl-4-CF3)][Hyp](Et))) is 25-fold higher in IC50: 1.1 nM for the first, 27 nM for the second.

Going from `CC[C@H](C)[C@@H]1NC(=O)[C@H](C(C)C)N(C)C(=O)CCNC(=O)[C@H](CC(C)C)N(C)C(=O)C2(CCCC2)NC(=O)[C@H](CC(C)C)N(C)C(=O)[C@H](CCc2ccc(C(F)(F)F)cc2)NC(=O)CN(C)C(=O)[C@H](Cc2ccc(Cl)cc2)N(C)C(=O)CN(C)C(=O)CN(C)C1=O` [Compound 923] (cyclo([Ac5c][NMeL][βAla][NMeV]I[Sar][Sar][NMePhe(4-Cl)][Sar][hPhe(4-CF3)][NMeL])) to `CC[C@H](C)[C@@H]1NC(=O)[C@H](C)N(C)C(=O)C[C@@H](C)N(C)C(=O)[C@H](CC(C)C)N(C)C(=O)[C@H](Cc2ccccc2)N(C)C(=O)[C@H](CC(C)C)NC(=O)[C@H](CCc2ccc(C(F)(F)F)cc2)NC(=O)CN(C)C(=O)[C@H](Cc2ccc(Cl)cc2)N(C)C(=O)CN(C)C(=O)CN(C)C1=O` [Compound 927] (cyclo(I[Sar][Sar][NMePhe(4-Cl)][Sar][hPhe(4-CF3)]L[NMeF][NMeL][NMedβ3hAla][NMeA])), the IC50 falls from 230 nM to 23 nM (10-fold).

Compared with `CCO[C@@H]1C[C@H]2C(=O)N(C)[C@@H](COCCC(C)C)C(=O)N(C)[C@@H](CC(C)C)C(=O)N[C@H](C(=O)N3CCCC3)CC(=O)N(C)[C@@H](C)C(=O)N[C@@H]([C@@H](C)CC)C(=O)N(C)CC(=O)N(C)CC(=O)N(C)[C@@H](Cc3ccc(Cl)cc3)C(=O)N(C)CC(=O)N[C@@H](Cc3cccc(Cl)c3)C(=O)N2C1` [Compound 925] ([NMeA]I[Sar][Sar][NMePhe(4-Cl)][Sar][Phe(3-Cl)][Hyp](Et)[NMeS](Isopentyl)[NMeL]D-Pyrrolidide; lactam N-11), `CCO[C@@H]1C[C@H]2C(=O)NC3(CCCC3)C(=O)N(C)[C@@H]([C@@H](C)CC)C(=O)N(C)[C@H](C)CC(=O)N(C)[C@@H](CC(C)C)C(=O)N[C@@H]([C@@H](C)CC)C(=O)N(C)[C@@H](C)C(=O)N3CC[C@H]3C(=O)N(CC)[C@@H](Cc3ccc(C(F)(F)F)cc3)C(=O)N(C)CC(=O)N[C@@H](CCc3ccc(C(F)(F)F)c(Cl)c3)C(=O)N2C1` [Compound 932] (cyclo([Ac5c][NMeI][NMedβ3hAla][NMeL]I[NMeA][Aze][NEtPhe(4-CF3)][Sar][hPhe(3-Cl-4-CF3)][Hyp](Et))) is 67-fold lower in IC50: 360 nM for the first, 5.4 nM for the second. The second is the more potent here.

With `CC[C@H](C)[C@@H]1NC(=O)[C@H](CC(C)C)N(C)C(=O)C[C@@H](C)N(C)C(=O)[C@H](C2CCCC2)N(C)C(=O)C2(CCC2)NC(=O)[C@@H]2CC(F)(F)CN2C(=O)[C@H](CCc2ccc(C(F)(F)F)c(Cl)c2)NC(=O)CN(C)C(=O)[C@H](Cc2ccc(C(F)(F)F)cc2)N(CC)C(=O)[C@@H]2CCN2C(=O)[C@H](C)N(C)C1=O` [Compound 949] (cyclo([Ac4c][NMeGly(cPent)][NMedβ3hAla][NMeL]I[NMeA][Aze][NEtPhe(4-CF3)][Sar][hPhe(3-Cl-4-CF3)][Pro(4,4-F2)])) the IC50 was 1.3 nM.
